Legend:
[1] = xn = mol fraction of the nth substance listed; conditions: Ring tensiometer
[2] = Ring tensiometer

C[S+](C)[O-] [dimethyl sulfoxide] + CO
surface tension liquid-gas [mN/m], [1]
Conditions | 298.15 K | 308.15 K | 318.15 K | 328.15 K
x2 = 0 | 42.43 | 41.3 | 40.17 | 39.08
x2 = 0.077 | 41.31 | 40.2 | 39.15 | 38.06
x2 = 0.154 | 40.03 | 38.95 | 37.91 | 36.84
x2 = 0.231 | 38.59 | 37.54 | 36.58 | 35.55
x2 = 0.308 | 37.1 | 36.16 | 35.2 | 34.25
x2 = 0.384 | 35.6 | 34.69 | 33.78 | 32.84
x2 = 0.462 | 34.07 | 33.18 | 32.31 | 31.45
x2 = 0.538 | 32.46 | 31.62 | 30.79 | 29.96
x2 = 0.615 | 30.84 | 30.03 | 29.22 | 28.41
x2 = 0.693 | 29.2 | 28.38 | 27.56 | 26.79
x2 = 0.769 | 27.5 | 26.69 | 25.84 | 24.96
x2 = 0.846 | 25.77 | 24.89 | 24.2 | 23.31
x2 = 0.9 | 24.56 | 23.67 | 22.88 | 21.94

CCO [ethanol]
[2]
Conditions | surface tension liquid-gas [mN/m]
298.15 K | 21.66
308.15 K | 21.01
318.15 K | 20.19
328.15 K | 19.23

CCO [ethanol] + C[S+](C)[O-]
[1], x1 = 1
Conditions | surface tension liquid-gas [mN/m]
298.15 K | 21.66
308.15 K | 21.01
318.15 K | 20.19
328.15 K | 19.23

CO [methanol]
[2]
Conditions | surface tension liquid-gas [mN/m]
298.15 K | 22.24
308.15 K | 21.41
318.15 K | 20.53
328.15 K | 19.54

CO [methanol] + C[S+](C)[O-]
[1], x1 = 1
Conditions | surface tension liquid-gas [mN/m]
298.15 K | 22.24
308.15 K | 21.41
318.15 K | 20.53
328.15 K | 19.54

CC(C)O [propan-2-ol]
[2]
Conditions | surface tension liquid-gas [mN/m]
298.15 K | 21.15
308.15 K | 20.29
318.15 K | 19.53
328.15 K | 18.51

CC(C)O [propan-2-ol] + C[S+](C)[O-]
[1], x1 = 1
Conditions | surface tension liquid-gas [mN/m]
298.15 K | 21.15
308.15 K | 20.29
318.15 K | 19.53
328.15 K | 18.51

O [water]
Conditions | surface tension liquid-gas [mN/m]
[2], 298.15 K | 72.05
